Laboratory results reported in US8497075B2, “Methods of identifying a modulator that inhibits the binding between Epstein-Barr virus induced receptor 2 and cholesterol derived ligands” (Novartis AG, priority 2008, dated 2013).

Columns and labels:
[1] = system: MAP/ERK signaling pathway (p44/42 MAP kinase); experiment: Western blot of MAP/ERK phosphorylation, EBI2 expressing CHO cell line; assay type: cell-based, Chinese hamster; details: 5 min after compound addition
Description: (§1) Cells (E2=CHO/AEQ/Gqi5/hEBI2) were seeded at 2×10^5 cell/well in a 12 well plate (TPP #92012) and incubated at 37° C./5% CO2 overnight. The next day medium was removed and cells were starved in serum-free medium for 4 h. Subsequently compound was added for 5 min at RT before cells were lysed (70 ul, 0.5% Triton-X100, 300 mM NaCl, 50 mM Tris pH7.5, Complete™ protease inhibitor cocktail Roche #04693124001). Cell lysates were resolved by gradient SDS-PAGE (NuPage™4-12%, #NP0322Box), transferred by semi-dry blotting to nitrocellulose (Invitrogen, #LC2001) and probed with a phospho p42/44 MAPK (T202/Y204) rabbit mAb (Cell Signalling #4376S). After treatment with a secondary goat anti rabbit-HRP (Pierce #41460) antibody the blots were developed for chemiluminescence (SuperSignal West Dura™, Pierce #34075) and visualized using a BioRad GEL DOC™ imaging system.

[2] = system: MAP/ERK signal in parental CHO cell line; experiment: Western blot of MAP/ERK phosphorylation, parental CHO cell line without human EBI2; assay type: cell-based, Chinese hamster; details: high concentrations
Description: as §1

[3] = system: EBV-infected human B cells; experiment: chemotaxis trans well assay; assay type: cell-based; details: 3 hr migration
Description: (§2) B cells (RS11846 or EBV-infected human B-cells) or murine bone marrow-derived dendritic cells were washed once with medium and resuspended at 1×10^6/ml. 100 μl of this suspension was added into the wells of the filter plate and gently placed into the receiver plate containing 150 μl of a given compound dilution. The final DMSO concentration was less then 0.1%. After migration for 3 hr at 37° C. in an incubator, the filter plate was carefully removed from the receiver plate and discarded. The migrated cells in the receiver plate were resuspended and transferred into round-bottom 96-well plate, centrifuged and resuspended in 100 μl PBS containing 2% FCS and 0.1% NaN3 (FACS buffer). The input cells (100 μl) were similarly processed. For the calculation of the specific migration, a fixed number of beads (10000; Invitrogen #PCB100)) in 20 μl FACS buffer was added and the suspension was analyzed by flow cytometry using a FACS instrument PAS™ (Partec). Cells were identified based on their forward scatter (FSC) and side scatter (SSC) pattern. Chemotaxis is expressed either as total cell number or as percent of input cells.
Human peripheral B lymphocytes (PBL) were prepared from peripheral blood as a cell suspension by centrifugation on Ficoll plaque. PBL were rinsed in PBS and resuspended in complete RPMI 1640 medium (10% FCS and antibiotics) at the concentration of 2×10^7/cell/ml. […]

RS11846 cells = experiment: chemotaxis 96 transwell assay; assay type: cell-based; details: 3 hr migration
Description: as §2

[4] = system: mouse bone marrow-derived dendritic cells (wild type); experiment: chemotaxis assay, wild type dendritic cells; assay type: cell-based
Description: as §2
In order to generate sufficient numbers of dendritic cells (DC) we isolated bone marrow from wild type and EBI2-deficient mice (Deltagen) and treated them in culture for 7-8 days with murine IL4 and murine GM-CSF. […]

C[C@H](CCCC(C)(C)O)[C@H]1CC[C@H]2[C@@H]3[C@H](O)C=C4C[C@@H](O)CC[C@]4(C)[C@H]3CC[C@]12C [7a,25DHC, cholest-5-ene-3b,7a,25-triol]
activation of MAP/ERK signaling pathway (p44/42 MAP kinase phosphorylation) [1]: potently activate
activation of MAP/ERK signal in control cell line [2]: do not activate
attraction (migration) of EBV-infected B cells [3]: potently attract
attraction (migration) of RS11846 cells (RS11846 cells): potently attract
migration of DCs from wild type animals towards compound [4]: migrate
